# In US20160095823A1, “METHODS OF USING PROPOFOL DERIVATIVES FOR ANALGESIA” (priority 2005, published 2016):
# Values joined by “and” are separate entries in the source; they are usually repeats but may differ in a detail not shown here. Equal values may be shown once. Read-outs that look alike come from different tables or passages of the source.
# Tests used:
# [1] = molecular target: T1, α1 homomeric glycine receptors (Rattus norvegicus, UniProt P07727); experiment: Co-activation of the current response to 10 μM glycine, whole-cell patch clamp, transfected HEK 293 cells; assay type: cell-based; conditions: for nH (Hill coefficient), coactivating response, α1 homomer: co-applied with 10 μM glycine, Hill fit, ± s.d.
# T1 construct: expressed in transfected cells; host or cells: HEK 293, transient electroporation, cDNA in pCIS2, GFP cDNA co-transfected as marker
# T1 sequence (P07727 29-457): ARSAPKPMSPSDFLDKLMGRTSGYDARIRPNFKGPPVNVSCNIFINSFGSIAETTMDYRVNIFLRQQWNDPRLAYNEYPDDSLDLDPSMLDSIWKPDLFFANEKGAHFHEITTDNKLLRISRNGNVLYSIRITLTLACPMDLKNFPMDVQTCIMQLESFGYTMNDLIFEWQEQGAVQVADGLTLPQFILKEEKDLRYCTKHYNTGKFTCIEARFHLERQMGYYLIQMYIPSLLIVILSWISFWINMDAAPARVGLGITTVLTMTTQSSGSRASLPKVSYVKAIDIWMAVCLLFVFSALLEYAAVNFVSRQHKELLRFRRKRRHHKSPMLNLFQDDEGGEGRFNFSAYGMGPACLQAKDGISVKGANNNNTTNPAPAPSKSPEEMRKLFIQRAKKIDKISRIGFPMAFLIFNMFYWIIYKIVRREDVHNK
# Description: (§1) Reduced sensitivity to 1000 μM picrotoxin in α1β heteromeric receptors was used as an assay of the efficacy of β subunit expression. Cells were cultured in Dulbecco's modified Eagle's medium (DMEM, Biochrom, Berlin, Germany), supplemented with 10% fetal calf serum (FCS, Biochrom, Berlin, Germany), 100 U ml^−1 penicillin and 100 μg ml^−1 streptomycin at 37° C. in a 5% CO2/air incubator. For transfection, cells were suspended in a buffer containing 50 mM K2HPO4 and 20 mM K-acetate, pH 7.35. […] To visualize transfected cells, they were co-transfected with cDNA of green fluorescent protein (GFP 10 μg ml^−1). For transfection, we used an electroporation device by EquiBio (Kent, UK). Transfected cells were replated on glass-coverslips and incubated 15-24 h before recording.
# (§2) The phenol derivatives under investigation were prepared as 1 M stock solution in ethanol, light-protected and stored in glass vessels at −20° C. Concentrations were calculated from the amount injected into the glass vials. Drug-containing vials were vigorously vortexed for 60 min.
# (§3) Patch electrodes contained [mM] KCl 140, MgCl2 2, EGTA 11, HEPES 10, glucose 10; the bath solution contained [mM] NaCl 162, KCl 5.3, NaHPO4 0.6, KH2PO4 0.22, HEPES 15, glucose 5.6.
# (§4) Standard whole-cell experiments (Hamill et al., (1981) Pflügers Arch., 391, 85-100.) were performed at −30 mV membrane potential. A tight electrical seal of several GΩ formed between the cell membrane and a patch-clamp electrode allows inward currents due to agonist-induced channel activation to resolve in the pA range. Electrical resistance of the pipettes was around 5 MΩ, corresponding to a total access resistance in the whole-cell configuration of about 10 MΩ. An ultra-fast liquid filament switch technique (Franke et al., (1987) Neurosci. Lett., 77, 199-204) was used for the application of the agonist in pulses of 2 s duration. The agonist and/or the drug under investigation were applied to the cells via a smooth liquid filament achieved with a single outflow (glass tubing 0.15 mm inner diameter) connected to a piezo crystal. The cells were placed at the interface between this filament and the continuously flowing background solution. When a voltage pulse was applied to the piezo, the tube was moved up and down onto or away from the cell under investigation. […] The contents of these reservoirs were mixed at a junction immediately before entering the superfusion chamber.
# (§5) A new cell was used for each drug and each protocol, at least three different experiments were performed for each setting. The amount of the diluent ethanol corresponding to the highest drug concentration used was 34 000 μM.
# (§6) For data acquisition and further analysis the inventors used the Axopatch 200B amplifier in combination with pClamp6 software (Axon Instruments, Union City, Calif., USA). Currents were filtered at 2 kHz. Fitting procedures were performed using a non-linear least-squares Marquardt-Levenberg algorithm. Details are provided in the appropriate figure legends or in the results section.
# (§7) Activated or co-activated currents were normalized to their own maximum response. […] In these cases, the maximum response was the response at the highest concentration of the test compound for which a reliable response could be recorded.
# (§8) Only results obtained with α1β receptors were enrolled in the statistical tests. […] Statistical analysis was performed in order to reveal differences in the maximum effect on the one hand and in the concentrations required to achieve half-maximum effect (EC50) on the other between halogenated and non-halogenated analogues, between compounds with one vs. two methyl groups, or between compounds with ortho- or meso-position of the methyl groups with respect to the phenolic hydroxyl group, respectively. Curve fitting and parameter estimation of the Hill curves were performed using the program “PROC NLMIXED” of SAS Release 8.02.
# [2] = molecular target: T2, α1β heteromeric glycine receptors (Rattus norvegicus, UniProt P07727); experiment: as above; assay type: cell-based; conditions: for nH (Hill coefficient), coactivating response, α1β heteromer: co-applied with 10 μM glycine, Hill fit, ± s.d.; for half-maximum concentration for glycine receptor co-activation, fold lower than for half-maximum blockade of sodium channels: selectivity versus reported sodium channel block
# T2 construct: expressed in transfected cells; host or cells: HEK 293, transient electroporation, α:β cDNA 1:10, pCIS2 vector
# Description: as §1, §2, §3, §4, §5, §6, §7, §8
# [3] = molecular target: T1, α1 homomeric glycine receptors; experiment: Direct activation of Cl- inward currents (agonist applied alone), whole-cell patch clamp, HEK 293; assay type: cell-based; conditions: for directly activated current as % of the maximum glycine (1000 μM) response: 3000 μM compound, without glycine, α1, n=3; for EC50: read-out: half-maximum concentration (EC50) for direct activation
# Description: as §1, §4, §5, §6, §7
# [4] = molecular target: T2, α1β heteromeric glycine receptors; experiment: as above; assay type: cell-based; conditions: for directly activated current as % of the maximum glycine (1000 μM) response: 3000 μM compound, without glycine, α1β, n=3; for EC50: read-out: half-maximum concentration (EC50) for direct activation
# Description: as §1, §4, §5, §6, §7
# [5] = tested on: voltage-operated sodium channels; conditions: cited from earlier work
# glycine receptors = molecular target: T3, glycine receptors (Rattus norvegicus, UniProt P07727); experiment: Inhibitory effects (open channel block) on co-application with saturating 1000 μM glycine; assay type: cell-based; conditions: co-applied with 1000 μM glycine, 3 experiments
# T3 construct: expressed in transfected cells; host or cells: HEK 293
# T3 sequence (P07727 29-457): T1 sequence (P07727 29-457)
# Description: as §4
# A new cell was used for each drug and each protocol, at least three different experiments were performed for each setting. […]
# [6] = molecular target: T4, α-subunits of glycine receptors from the rat coexpressed with human β subunits (Rattus norvegicus, UniProt P07727); experiment: Example 2: direct activation in the absence of glycine, whole-cell mode, HEK293 cells; assay type: cell-based; conditions: for EC50 values in the absence of the natural transmitter glycine: Example 2; for direct activating effect, fold higher concentrations than the co-activating effect: absence of glycine versus 10 μM glycine
# T4 construct: expressed in transfected cells; host or cells: HEK293
# Description: (§9) Small cells were studied in the whole-cell mode using an ultra-fast application device.
# The solid line is a Hill fit to the data with the indicated parameters. Note that the direct activating effect is observed at 1000-fold higher concentrations than the co-activating effect.
# [7] = molecular target: T4, α-subunits of glycine receptors from the rat coexpressed with human β subunits; experiment: Example 2: co-activation of the current response to 10 μM glycine, whole-cell mode, HEK293 cells; assay type: cell-based; conditions: for EC50 values in the presence of glycine (co-activation): Example 2; for concentrations at which the co-activating effect is overridden by inhibitory effects: co-applied with 10 μM glycine; for enhancement of glycine receptor function / EC50 for co-activation, fold lower concentrations than propofol: glycine receptors heterologously expressed in HEK293 cells
# Description: as §9
# The results presented in FIG. 10 were corroborated by repeating the tests carried out to provide the data shown in FIG. 10 to provide the data shown in FIG. 11. […] Note from FIGS. 10 and 11 that the co-activating effect is observed in the concentration range between […]. The co-activating effect is overridden by inhibitory effects at higher concentrations (≧1000 μM). […] Small cells were studied in the whole-cell mode using an ultra-fast application device.
# [8] = molecular target: T1, α1 homomeric glycine receptors; experiment: Picrotoxin block of the 1000 μM glycine current (check of β subunit expression); assay type: cell-based; conditions: picrotoxin 1000 μM co-applied with 1000 μM glycine
# Description: as §1
# (§10) A total of 94 cells were included in the study.
# α1β glycine receptors = molecular target: T5, α1β glycine receptors (Rattus norvegicus, UniProt P07727); experiment: as above; assay type: cell-based; conditions: picrotoxin 1000 μM co-applied with 1000 μM glycine
# T5 construct: expressed in transfected cells; host or cells: HEK 293, transient electroporation, α:β cDNA 1:10, pCIS2 vector
# Description: as §1, §10
# [9] = read-out: EC50 (μM), normalised coactivating response, α1 homomer
# [10] = read-out: EC50 (μM), normalised coactivating response, α1β heteromer
# T2 sequence (P20781 23-496 partner, one chain of several): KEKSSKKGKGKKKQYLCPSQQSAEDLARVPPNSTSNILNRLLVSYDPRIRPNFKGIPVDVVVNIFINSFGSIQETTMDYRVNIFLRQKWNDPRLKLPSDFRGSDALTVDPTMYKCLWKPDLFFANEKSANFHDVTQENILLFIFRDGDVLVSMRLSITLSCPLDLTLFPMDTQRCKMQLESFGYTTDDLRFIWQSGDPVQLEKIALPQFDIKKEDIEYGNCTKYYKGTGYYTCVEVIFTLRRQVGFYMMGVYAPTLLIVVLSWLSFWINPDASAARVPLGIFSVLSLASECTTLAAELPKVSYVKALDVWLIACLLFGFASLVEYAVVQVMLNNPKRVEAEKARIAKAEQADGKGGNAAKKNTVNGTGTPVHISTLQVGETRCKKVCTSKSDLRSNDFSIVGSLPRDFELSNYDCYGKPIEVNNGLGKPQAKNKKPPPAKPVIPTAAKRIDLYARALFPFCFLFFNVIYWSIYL
# T4 sequence (P48167 23-497 partner, one chain of several): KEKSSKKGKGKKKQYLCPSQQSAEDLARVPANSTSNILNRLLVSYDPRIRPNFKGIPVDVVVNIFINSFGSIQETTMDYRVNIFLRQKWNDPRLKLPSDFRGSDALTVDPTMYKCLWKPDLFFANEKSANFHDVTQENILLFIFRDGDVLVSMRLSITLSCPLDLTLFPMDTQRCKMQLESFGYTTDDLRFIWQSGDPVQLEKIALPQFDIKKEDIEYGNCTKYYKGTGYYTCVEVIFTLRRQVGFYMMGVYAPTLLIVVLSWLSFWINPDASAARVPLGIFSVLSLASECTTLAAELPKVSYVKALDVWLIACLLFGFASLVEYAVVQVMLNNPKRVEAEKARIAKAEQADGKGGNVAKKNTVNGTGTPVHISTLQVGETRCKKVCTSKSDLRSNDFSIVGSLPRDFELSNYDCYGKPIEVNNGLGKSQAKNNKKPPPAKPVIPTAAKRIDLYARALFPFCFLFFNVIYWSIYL
# T5 sequence (P20781 23-496 partner, one chain of several): as the sequence (P20781 23-496 partner, one chain of several) above
compound,measurement,setting,value
Cc1ccccc1O [2 methylphenol],EC50,[1],70 ± 29 µM
same,"nH (Hill coefficient), coactivating response, α1 homomer",[1],0.7 ± 0.1
same,EC50,[2],448 ± 89 µM
same,"nH (Hill coefficient), coactivating response, α1β heteromer",[2],1.2 ± 0.2
"Cc1cccc(C)c1O [2,6 dimethylphenol]","nH (Hill coefficient), coactivating response, α1 homomer",[1],1.5 ± 0.4
same,EC50,[1]; [9],226 ± 104 µM
same,"nH (Hill coefficient), coactivating response, α1β heteromer",[2],1.2 ± 0.1
same,EC50,[2]; [10],370 µM and 373 µM
same,directly activated current as % of the maximum glycine (1000 μM) response,[3],32±6%
same,EC50,[3],1410 ± 101 µM
same,directly activated current as % of the maximum glycine (1000 μM) response,[4],33±10%
same,EC50,[4],1550 ± 164 µM
same,IC50,"[5]; membrane potential close to the physiological resting potential, read-out: half-maximum blockade of voltage-operated neuronal sodium channels",187 µM
Cc1cc(O)ccc1Cl [3 methyl-4-chlorophenol],EC50,[1],8 ± 5 µM
same,"nH (Hill coefficient), coactivating response, α1 homomer",[1],1.1 ± 0.4
same,EC50,[2],4 µM
same,"nH (Hill coefficient), coactivating response, α1β heteromer",[2],1.2 ± 0.3
same,"half-maximum concentration for glycine receptor co-activation, fold lower than for half-maximum blockade of sodium channels",[2],~100 fold
same,IC50,"[5]; resting state, read-out: half-maximum block of sodium channels",400 µM
same,concentration producing a reduction in peak current amplitude with response rebound,glycine receptors,> 600 µM
Cc1cccc(O)c1 [3 methylphenol],"nH (Hill coefficient), coactivating response, α1 homomer",[1],0.9 ± 0.3
same,EC50,[1]; [9],59 ± 19 µM
same,"nH (Hill coefficient), coactivating response, α1β heteromer",[2],1.0 ± 0.1
same,EC50,[2]; [10],222 ± 45 µM
"Cc1cc(O)cc(C)c1Cl [3,5 dimethyl-4-chlorophenol]","nH (Hill coefficient), coactivating response, α1 homomer",[1],1.4 ± 2.9
same,EC50,[1]; [9],13 ± 4 µM
same,"nH (Hill coefficient), coactivating response, α1β heteromer",[2],1.3 ± 0.1
same,EC50,[2]; [10],11 ± 2 µM
same,"half-maximum concentration for glycine receptor co-activation, fold lower than for half-maximum blockade of sodium channels",[2],about 10 fold
same,concentration producing a reduction in peak current amplitude with response rebound,glycine receptors,> 300 µM
"Cc1cc(C)cc(O)c1 [3,5 dimethylphenol]","nH (Hill coefficient), coactivating response, α1 homomer",[1],1.7 ± 0.9
same,EC50,[1]; [9],254 ± 139 µM
same,"nH (Hill coefficient), coactivating response, α1β heteromer",[2],1.3 ± 0.2
same,EC50,[2]; [10],308 ± 46 µM
same,directly activated current as % of the maximum glycine (1000 μM) response,[3],30±12%
same,EC50,[3],1470 ± 208 µM
same,directly activated current as % of the maximum glycine (1000 μM) response,[4],38±5%
same,EC50,[4],1470 ± 83 µM
"CC(C)c1cc(Br)cc(C(C)C)c1O [4-bromopropofol, 4-bromo-2,6 di-isopropylphenol]",EC50 values in the absence of the natural transmitter glycine,[6],single-digit micromolar range
same,"direct activating effect, fold higher concentrations than the co-activating effect",[6],1000 fold
same,EC50 values in the presence of glycine (co-activation),[7],single-digit nanomolar range
same,concentrations at which the co-activating effect is overridden by inhibitory effects,[7],> 1000 µM
same,"enhancement of glycine receptor function / EC50 for co-activation, fold lower concentrations than propofol",[7],1000 fold
"CC(C)c1cc(I)cc(C(C)C)c1O [4-iodopropofol, 4-iodo-2,6 di-isopropylphenol]",EC50 values in the absence of the natural transmitter glycine,[6],single-digit micromolar range
same,"direct activating effect, fold higher concentrations than the co-activating effect",[6],1000 fold
same,EC50 values in the presence of glycine (co-activation),[7],single-digit nanomolar range
same,concentrations at which the co-activating effect is overridden by inhibitory effects,[7],> 1000 µM
same,"enhancement of glycine receptor function / EC50 for co-activation, fold lower concentrations than propofol",[7],1000 fold
NCC(=O)O [glycine],"current response evoked by 10 μM glycine, % of the response to 1000 μM glycine","[3]; α1 receptors, n=24",46±5%
same,"current response evoked by 10 μM glycine, % of the response to 1000 μM glycine","[4]; α1β receptors, n=34",21±7%
picrotoxin,block of receptors by picrotoxin,[8],55±0.05%
same,block of receptors by picrotoxin,α1β glycine receptors,19±0.05%
